The text below walks through data of ChEMBL document CHEMBL5104199, “Design, Synthesis, and Biochemical and Biological Evaluation of Novel 7-Deazapurine Cyclic Dinucleotide Analogues as STING Receptor Agonists” (J Med Chem, 2022).

Bounds are passed on as bounds.

By EC50 is commonly meant the midpoint of the concentration-response curve. A higher EC50 goes with lower potency in that assay. Broadly, the ΔTm is the shift of the melting midpoint relative to a reference.

Data set [1] in a line: cells. Particulars: Homo sapiens, HEK-293T.
Description: Agonist activity at human STING AQ expressed in 293T cells by digitonin cell based assay
Data set [2] is described as follows: cells. Particulars: Homo sapiens, HEK-293T. This is another data set of the same source.
Description: Agonist activity at human STING HAQ expressed in 293T cells by digitonin cell based assay
Data set [3] in a line: cells. Particulars: Homo sapiens, HEK-293T. The source holds these as a separate data set.
Description: Agonist activity at human STING Q expressed in 293T cells by digitonin cell based assay
The nature of data set [4]: Cytotoxicity against human PBMC cells. The data set is classed as toxicity, cell-based.
Data set [5] deals with T1, Stimulator of interferon genes protein (Homo sapiens, UniProt Q86WV6). The note with it: filed as agonist.
T1 sequence (Q86WV6 whole entry): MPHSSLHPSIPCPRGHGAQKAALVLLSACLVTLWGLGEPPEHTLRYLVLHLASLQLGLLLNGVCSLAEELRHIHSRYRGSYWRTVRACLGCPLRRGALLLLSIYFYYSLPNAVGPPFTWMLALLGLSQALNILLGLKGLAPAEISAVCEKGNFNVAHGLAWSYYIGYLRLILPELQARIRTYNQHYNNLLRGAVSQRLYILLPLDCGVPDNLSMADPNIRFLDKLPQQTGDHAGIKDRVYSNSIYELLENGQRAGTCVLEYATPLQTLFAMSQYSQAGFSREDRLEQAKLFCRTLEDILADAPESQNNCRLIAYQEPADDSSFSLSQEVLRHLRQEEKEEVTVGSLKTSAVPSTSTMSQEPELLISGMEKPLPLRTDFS
Description: Binding affinity to human wild type STING assessed as change in melting temperature by differential scanning fluorimetry (DSF) method
The nature of data set [6]: Induction of TNFalpha secretion in human PBMC incubated for 16 hrs.
The target in data set [7] is T1, Stimulator of interferon genes protein. Briefly: Agonist activity at human wild type STING expressed in 293T cells by digitonin cell based assay. Also noted: species or system HEK293T.
Data set [8] in a line: cells. The note with it: Homo sapiens, HEK-293T. This is another data set of the same source.
Description: Agonist activity at human STING REF expressed in 293T cells by digitonin cell based assay
Data set [9] can be described thus: Induction of IFNgamma secretion in human PBMC incubated for 16 hrs.
Data set [10] can be described thus: Induction of IFNalpha secretion in human PBMC incubated for 16 hrs.
Data set [11] has as its target T1, Stimulator of interferon genes protein. Briefly: Agonist activity at human wild type full length STING expressed in 293T cells incubated for 7 hrs by luciferase/cell based assay. Further details: species or system HEK-293T.

In the case of `Nc1nc2c(ncn2[C@@H]2O[C@@H]3COP(=O)(O)O[C@H]4[C@@H](O)[C@H](n5cc(-c6ccc7ccccc7c6)c6c(N)ncnc65)O[C@@H]4COP(=O)(O)O[C@@H]2[C@@H]3O)c(=O)[nH]1`, the EC50 in the data set “cells [1]” came out at 550 nM; in the data set “cells [2]”, 695 nM; in the data set “cells [3]”, 700 nM; in [6], 98800 nM; in data set [7] it was 48 nM; in the data set “cells [8]” it was 1400 nM. Further, in data set [4], the Activity entry was “Non-Toxic”. The thermal shift (ΔTm) in data set [5] was 14.4 °C.
With `Nc1nc2c(ncn2[C@@H]2O[C@@H]3COP(=O)(O)O[C@H]4[C@@H](O)[C@H](n5cc(-c6cccs6)c6c(N)ncnc65)O[C@@H]4COP(=O)(O)O[C@@H]2[C@@H]3O)c(=O)[nH]1`, the Activity entry in data set [4] is “Non-Toxic”.
Turning to `Nc1nc2c(ncn2[C@@H]2O[C@@H]3COP(=O)(O)O[C@H]4[C@@H](O)[C@H](n5cc(-c6ccc(-c7ccc8ccccc8c7)cc6)c6c(N)ncnc65)O[C@@H]4COP(=O)(O)O[C@@H]2[C@@H]3O)c(=O)[nH]1`, the concentration giving a half-maximal response (EC50) in the data set “cells [1]” is 160 nM; in “cells [2]”, 132 nM; in the data set “cells [3]”, 950 nM; in data set [6], 53900 nM; in data set [7] it was 32 nM; in [9], 1770 nM. Besides, the EC50 in the data set “cells [8]” was determined as 1000 nM; in data set [10] it was 5090 nM. For the same compound, the Activity entry in data set [4] is “Non-Toxic”. In addition, the ΔTm in data set [5] was 13 °C.
For the compound `Nc1nc2c(ncn2[C@@H]2O[C@@H]3COP(=O)(O)O[C@H]4[C@@H](O)[C@H](n5cnc6c(N)ncnc65)O[C@@H]4COP(=O)(O)O[C@@H]2[C@@H]3O)c(=O)[nH]1`, the Activity result in [4] is “Non-Toxic”.
Turning to `Cc1cn([C@@H]2O[C@@H]3COP(=O)(O)O[C@@H]4[C@H](O)[C@@H](COP(=O)(O)O[C@H]3[C@H]2O)O[C@H]4n2cnc3c(=O)[nH]c(N)nc32)c2ncnc(N)c12`, the Activity entry in [4] is given as “Non-Toxic”.
For `Nc1nc2c(ncn2[C@@H]2O[C@@H]3COP(=O)(O)O[C@H]4[C@@H](O)[C@H](n5cc(-c6ccccc6)c6c(N)ncnc65)O[C@@H]4COP(=O)(O)O[C@H]3[C@H]2O)c(=O)[nH]1`, the concentration giving a half-maximal response (EC50) is 280 nM in the data set “cells [1]”; 367 nM in “cells [2]”; 4480 nM in “cells [3]”; 65800 nM in data set [6]; 110 nM in [7]; 12600 nM in [9]. In addition, the EC50 in data set [11] is over 150000 nM; in “cells [8]”, 10400 nM; in data set [10], 6920 nM. For the same compound, in [4], the Activity result is reported as “Non-Toxic”. Besides, the shift in melting temperature (ΔTm) in data set [5] amounted to 5.1 °C.
Regarding `Nc1nc2c(ncn2[C@@H]2O[C@@H]3COP(=O)(O)O[C@H]4[C@@H](O)[C@H](n5cc(C6CC6)c6c(N)ncnc65)O[C@@H]4COP(=O)(O)O[C@@H]2[C@@H]3O)c(=O)[nH]1`, the Activity entry in data set [4] is listed as “Non-Toxic”.
As to `Nc1nc2c(ncn2[C@@H]2O[C@@H]3COP(=O)(O)O[C@H]4[C@@H](O)[C@H](n5cc(-c6cccc7ccccc67)c6c(N)ncnc65)O[C@@H]4COP(=O)(O)O[C@@H]2[C@@H]3O)c(=O)[nH]1`, the concentration giving a half-maximal response (EC50) in the data set “cells [1]” is 470 nM; in “cells [2]”, 497 nM; in “cells [3]”, 7230 nM; in data set [6] it was over 200000 nM; in [7], 1100 nM; in the data set “cells [8]”, 18900 nM. The Activity entry in data set [4] was “Non-Toxic”. For the same compound, the ΔTm in data set [5] stood at 4.4 °C.
Turning to `Nc1nc2c(ncn2[C@@H]2O[C@@H]3COP(=O)(O)O[C@H]4[C@@H](O)[C@H](n5cc(-c6cc7ccccc7s6)c6c(N)ncnc65)O[C@@H]4COP(=O)(O)O[C@@H]2[C@@H]3O)c(=O)[nH]1`, the concentration for a half-maximal effect (EC50) in the data set “cells [1]” came to 330 nM; in “cells [2]”, 195 nM; in the data set “cells [3]”, 250 nM; in data set [6], 1430 nM; in [7] it was 35 nM; in data set [9], 870 nM. In addition, the EC50 in the data set “cells [8]” came out at 350 nM; in data set [10] it was 4040 nM. In addition, in data set [4], the Activity entry was “Non-Toxic”. Also, in [5], the thermal shift (ΔTm) was 13.5 °C.
With `Nc1ncnc2c1c(-c1ccccc1)cn2[C@@H]1O[C@@H]2COP(=O)(O)O[C@@H]3[C@H](O)[C@@H](COP(=O)(O)O[C@H]2[C@H]1O)O[C@H]3n1cc(-c2ccccc2)c2c(N)ncnc21`, the EC50 in “cells [1]” was over 45000 nM; in the data set “cells [2]” it was over 45000 nM; in “cells [3]” it was over 45000 nM; in data set [7], over 45000 nM; in data set [11], over 150000 nM; in “cells [8]”, over 45000 nM. Also, in data set [5], the shift in melting temperature (ΔTm) was -0.6 °C.
Turning to `Nc1nc2c(ncn2[C@@H]2O[C@@H]3COP(=O)(O)O[C@H]4[C@@H](O)[C@H](n5cc(-c6ccc(-c7ccccc7)cc6)c6c(N)ncnc65)O[C@@H]4COP(=O)(O)O[C@@H]2[C@@H]3O)c(=O)[nH]1`, the EC50 was determined as 92 nM in “cells [1]”; 173 nM in “cells [2]”; 235 nM in the data set “cells [3]”; 13600 nM in data set [6]; 13 nM in data set [7]; 2050 nM in data set [9]. The EC50 amounted to 346 nM in “cells [8]” and 7430 nM in data set [10]. Further, in data set [4], the Activity result is reported as “Non-Toxic”. Besides, in data set [5], the shift in melting temperature (ΔTm) came out at 12.3 °C.
For `Nc1nc2c(c(-c3ccccc3)cn2[C@@H]2O[C@@H]3COP(=O)(O)O[C@H]4[C@@H](O)[C@H](n5cc(-c6ccccc6)c6c(N)ncnc65)O[C@@H]4COP(=O)(O)O[C@@H]2[C@@H]3O)c(=O)[nH]1`, the 50% effective concentration (EC50) in the data set “cells [1]” is 10300 nM; in “cells [2]”, 9420 nM; in “cells [3]”, 271 nM; in data set [7] it was 6410 nM; in [11] it was over 150000 nM; in the data set “cells [8]”, 19500 nM. Also, the thermal shift (ΔTm) in [5] was found to be 1 °C.
On to `Nc1nc2c(ncn2[C@@H]2O[C@@H]3COP(=O)(O)O[C@H]4[C@@H](O)[C@H](n5cnc6c(N)ncnc65)O[C@@H]4COP(=O)(O)O[C@H]3[C@H]2O)c(=O)[nH]1`, for which, in [4], the Activity entry is recorded as “Non-Toxic”. Besides, the EC50 worked out at 18700 nM in data set [6], 17200 nM in data set [9] and 7650 nM in [10].
Turning to `Nc1nc2c(ncn2[C@@H]2O[C@@H]3COP(=O)(O)O[C@H]4[C@@H](O)[C@H](n5cc(-c6ccc7c8c(cccc68)CC7)c6c(N)ncnc65)O[C@@H]4COP(=O)(O)O[C@@H]2[C@@H]3O)c(=O)[nH]1`, the EC50 in “cells [1]” is 1530 nM; in the data set “cells [2]”, 1630 nM; in the data set “cells [3]”, 35800 nM; in data set [6], over 200000 nM; in data set [7] it was 1160 nM; in data set [9], 85200 nM. Also, the figures for the 50% effective concentration (EC50) (in data set [11]; in “cells [8]”; in [10]) were over 150000 nM, over 45000 nM and 74700 nM, respectively. For the same compound, the Activity result in [4] is given as “Non-Toxic”. Besides, in data set [5], the shift in melting temperature (ΔTm) worked out at 2.5 °C.
Consider `Nc1nc2c(ncn2[C@@H]2O[C@@H]3COP(=O)(O)O[C@H]4[C@@H](O)[C@H](n5cc(-c6cc7ccccc7o6)c6c(N)ncnc65)O[C@@H]4COP(=O)(O)O[C@@H]2[C@@H]3O)c(=O)[nH]1`, for which the concentration for a half-maximal effect (EC50) stood at 85 nM in the data set “cells [1]”; 60 nM in the data set “cells [2]”; 176 nM in the data set “cells [3]”; 24600 nM in [6]; 76 nM in data set [7]; 8330 nM in [9]. Further, the concentration giving a half-maximal response (EC50) turned out to be 334 nM in the data set “cells [8]” and 12800 nM in data set [10]. The Activity result in data set [4] is “Non-Toxic”. Besides, the thermal shift (ΔTm) in data set [5] was 12.1 °C.
As for `Nc1nc2c(ncn2[C@@H]2O[C@@H]3COP(=O)(O)O[C@H]4[C@@H](O)[C@H](n5cc(-c6ccccc6)c6c(N)ncnc65)O[C@@H]4COP(=O)(O)O[C@@H]2[C@@H]3O)c(=O)[nH]1`, the EC50 in “cells [1]” stood at 307 nM; in “cells [2]” it was 385 nM; in “cells [3]”, 1700 nM; in data set [6] it was 52400 nM; in data set [7], 63 nM; in “cells [8]” it was 5900 nM. For the same compound, the Activity entry in data set [4] is “Non-Toxic”. Further, the ΔTm in data set [5] is 8.1 °C.
Turning to `Nc1nc2c(ncn2[C@@H]2O[C@@H]3COP(=O)(O)O[C@H]4[C@@H](O)[C@H](n5cc(-c6cc7ccccc7c7ccccc67)c6c(N)ncnc65)O[C@@H]4COP(=O)(O)O[C@@H]2[C@@H]3O)c(=O)[nH]1`, the half-maximal effective concentration (EC50) was 1400 nM in the data set “cells [1]”; 900 nM in the data set “cells [2]”; over 45000 nM in “cells [3]”; over 200000 nM in data set [6]; 61 nM in [7]; over 45000 nM in “cells [8]”. The compound also displayed a concentration for a half-maximal effect (EC50) in data set [10] of over 200000 nM. Further, the Activity entry in [4] was “Non-Toxic”. Moreover, the thermal shift (ΔTm) in data set [5] came to 4.4 °C.
In the case of `Nc1nc2c(ncn2[C@@H]2O[C@@H]3COP(=O)(O)O[C@H]4[C@@H](O)[C@H](n5cc(-c6cccc7c6oc6ccccc67)c6c(N)ncnc65)O[C@@H]4COP(=O)(O)O[C@@H]2[C@@H]3O)c(=O)[nH]1`, the concentration giving a half-maximal response (EC50) was found to be 869 nM in “cells [1]”; 503 nM in the data set “cells [2]”; 7070 nM in the data set “cells [3]”; 99700 nM in data set [6]; 367 nM in data set [7]; 8970 nM in the data set “cells [8]”. Further, the Activity result in data set [4] is listed as “Non-Toxic”. The shift in melting temperature (ΔTm) in data set [5] stood at 7.1 °C.
`Nc1nc2c(ncn2[C@@H]2O[C@@H]3COP(=O)(O)O[C@H]4[C@@H](O)[C@H](n5cc(-c6ccco6)c6c(N)ncnc65)O[C@@H]4COP(=O)(O)O[C@@H]2[C@@H]3O)c(=O)[nH]1`: the Activity result in data set [4] was “Non-Toxic”.
`Nc1nc2c(ncn2[C@@H]2O[C@@H]3COP(=O)(O)O[C@@H]4[C@H](O)[C@@H](COP(=O)(O)O[C@@H]2[C@@H]3O)O[C@H]4n2cnc3c(N)ncnc32)c(=O)[nH]1`: the EC50 is 173 nM in “cells [1]”; 189 nM in “cells [2]”; 7090 nM in the data set “cells [3]”; 44500 nM in [6]; 260 nM in data set [7]; 11800 nM in [9]. The results for the concentration giving a half-maximal response (EC50) (in data set [11]; in “cells [8]”; in data set [10]) were over 150000 nM, 59500 nM and 7210 nM, respectively. In addition, the Activity entry in [4] is listed as “Non-Toxic”. Further, the shift in melting temperature (ΔTm) in [5] amounted to 2.5 °C.
